Experiment [1] has as its target T1, E. coli topoisomerase IV (Escherichia coli, UniProt P20083).
T1 construct: purchased Inspiralis
Put plainly: biochemical. To be noted: E. coli topo IV, read-out: RA (residual activity of the enzyme); for remaining activity at 1 µM: 1 μM compound; for remaining activity at 10 µM: 10 μM compound. As to the method:
Inhibitory activities for compounds of the present invention were determined on E. coli and S. aureus DNA gyrase and topoisomerase IV in an assay from Inspiralis on streptavidin-coated 96-well microtiter plates from Thermo scientific Pierce. […] After washing off the unbound oligonucleotide, the enzyme test was performed. […] Reaction solutions were incubated at 37° C. for 30 min. After that, the TF buffer (50 mM NaOAc with pH 5.0, 50 mM NaCl and 50 mM MgCl2) was added to terminate the enzymatic reaction. After additional incubation for 30 min at rt, during which biotin-oligonucleotide-plasmid triplex was formed, the unbound plasmid was washed off using TF buffer and SybrGOLD in T10 buffer (10 mM Tris HCl with pH 8.0 and 1 mM EDTA) was added. […] Initial screening was done at 100 or 10 nM concentration of inhibitors against E. coli DNA gyrase or 1 μM or 100 nM concentration against S. aureus DNA gyrase and E. coli and S. aureus topo IV. […] GraphPad Prism 6.0 software was used to calculate the IC50 values. The result is given as the average value of three independent measurements. […] Chemoth.

The subject of experiment [2] is E. coli ATCC 25922. Put plainly: Microbroth dilution MIC (CLSI). It counts as cell-based. As to conditions: Escherichia coli, ATCC25922; E. coli ATCC 25922; read-out: MIC. The method, then: (§1) The chemical entities described in the present invention were assessed for their antimicrobial activity using a microbroth dilution assay as recommended by the CLSI (Methods for Dilution Antimicrobial Susceptibility Tests for Bacteria That Grow Aerobically, and Methods for Antimicrobial Susceptibility Testing of Anaerobic Bacteria, Clinical and Laboratory Standards Institute, Document M07-A8, and M11-A8, Wayne, PA 19087, USA, 2012.). Compounds were dissolved by using 100% DMSO. Serial two-fold dilutions of each compound were made by using 100% DMSO as the diluent.
(§2) A library of Gram-negative and Gram-positive microbes and their drug- and multidrug-resistant variants were employed as test organisms. The MIC (minimum inhibitory concentration) was determined as the lowest concentration of an individual drug that lead to no visible growth.
(In general: Dilution methods test growth across graded concentrations, often in twofold steps.)

For experiment [3], the system named is A. baumannii ATCC 17978. Nature of the experiment: Microbroth dilution MIC (CLSI). As to conditions: Acinetobacter baumannii, ATCC17978; A. baumannii ATCC 17978; read-out: MIC. It counts as cell-based. The method, then: as §1, §2
For experiment [4], the system named is E. spp. cloacae ATCC 13047. Nature of the experiment: Microbroth dilution MIC (CLSI). Format: cell-based. To be noted: Enterobacter cloacae, ATCC13047; E. spp. cloacae ATCC 13047; read-out: MIC. The method, then: as §1, §2
In experiment [5] the test system is P. aeruginosa ATCC 27853. Put plainly: Microbroth dilution MIC (CLSI). It counts as cell-based. As to conditions: Pseudomonas aeruginosa, ATCC27853; P. aeruginosa ATCC 27853; read-out: MIC. As to the method:
as §1, §2

The test system of experiment [6] is S. aureus ATCC 43300 (MRSA). Nature of the experiment: Microbroth dilution MIC (CLSI). It counts as cell-based. As to conditions: Staphylococcus aureus; S. aureus ATCC 43300 (MRSA); read-out: MIC. The method, then:
as §1, §2

The test system of experiment [7] is E. faecalis ATCC 29212. Nature of the experiment: Microbroth dilution MIC (CLSI). Format: cell-based. As to conditions: Enterococcus faecalis, ATCC29212; E. faecalis ATCC 29212; read-out: MIC. As to the method: as §1, §2
The subject of experiment [8] is K. pneumoniae ATCC 10031. Nature of the experiment: Microbroth dilution MIC (CLSI). Format: cell-based. As to conditions: Klebsiella pneumoniae, ATCC10031; K. pneumoniae ATCC 10031; read-out: MIC. As to the method: as §1, §2
The subject of experiment [9] is S. aureus ATCC 29213. Nature of the experiment: Microbroth dilution MIC (CLSI). It counts as cell-based. As to conditions: Staphylococcus aureus, ATCC29213; S. aureus ATCC 29213; read-out: MIC. As to the method: as §1, §2
For experiment [10], the target named is T2, E. coli DNA gyrase (Escherichia coli, UniProt P0AES6).
T2 construct: purchased Inspiralis
Put plainly: biochemical. As to conditions: E. coli DNA gyrase; read-out: IC50. The method, then: Inhibitory activities for compounds of the present invention were determined on E. coli and S. aureus DNA gyrase and topoisomerase IV in an assay from Inspiralis on streptavidin-coated 96-well microtiter plates from Thermo scientific Pierce. […] After washing off the unbound oligonucleotide, the enzyme test was performed. […] Reaction solutions were incubated at 37° C. for 30 min. After that, the TF buffer (50 mM NaOAc with pH 5.0, 50 mM NaCl and 50 mM MgCl2) was added to terminate the enzymatic reaction. After additional incubation for 30 min at rt, during which biotin-oligonucleotide-plasmid triplex was formed, the unbound plasmid was washed off using TF buffer and SybrGOLD in T10 buffer (10 mM Tris HCl with pH 8.0 and 1 mM EDTA) was added. […] GraphPad Prism 6.0 software was used to calculate the IC50 values. The result is given as the average value of three independent measurements. […] Chemoth.

In brackets after ≈: the same amount, converted by molar mass.

T1 sequence (P0AFI2 whole entry): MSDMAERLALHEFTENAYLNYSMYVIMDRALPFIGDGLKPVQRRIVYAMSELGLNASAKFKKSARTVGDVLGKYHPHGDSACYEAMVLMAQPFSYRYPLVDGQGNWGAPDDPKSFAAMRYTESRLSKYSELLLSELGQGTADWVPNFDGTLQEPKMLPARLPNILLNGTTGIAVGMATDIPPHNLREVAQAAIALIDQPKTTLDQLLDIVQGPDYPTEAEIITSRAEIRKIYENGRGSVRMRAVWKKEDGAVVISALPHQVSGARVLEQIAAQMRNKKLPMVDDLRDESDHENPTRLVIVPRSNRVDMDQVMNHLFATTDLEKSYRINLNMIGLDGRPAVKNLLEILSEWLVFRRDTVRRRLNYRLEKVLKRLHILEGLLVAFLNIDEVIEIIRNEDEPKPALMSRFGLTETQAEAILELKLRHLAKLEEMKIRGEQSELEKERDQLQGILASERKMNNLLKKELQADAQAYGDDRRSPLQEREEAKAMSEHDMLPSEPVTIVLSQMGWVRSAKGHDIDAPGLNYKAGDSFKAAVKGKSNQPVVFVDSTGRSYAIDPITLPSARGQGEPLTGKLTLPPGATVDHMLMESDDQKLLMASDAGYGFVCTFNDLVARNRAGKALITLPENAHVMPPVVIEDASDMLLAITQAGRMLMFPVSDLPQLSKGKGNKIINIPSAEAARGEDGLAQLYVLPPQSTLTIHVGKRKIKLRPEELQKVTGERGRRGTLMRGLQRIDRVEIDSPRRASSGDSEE
T1 sequence (P20083 whole entry): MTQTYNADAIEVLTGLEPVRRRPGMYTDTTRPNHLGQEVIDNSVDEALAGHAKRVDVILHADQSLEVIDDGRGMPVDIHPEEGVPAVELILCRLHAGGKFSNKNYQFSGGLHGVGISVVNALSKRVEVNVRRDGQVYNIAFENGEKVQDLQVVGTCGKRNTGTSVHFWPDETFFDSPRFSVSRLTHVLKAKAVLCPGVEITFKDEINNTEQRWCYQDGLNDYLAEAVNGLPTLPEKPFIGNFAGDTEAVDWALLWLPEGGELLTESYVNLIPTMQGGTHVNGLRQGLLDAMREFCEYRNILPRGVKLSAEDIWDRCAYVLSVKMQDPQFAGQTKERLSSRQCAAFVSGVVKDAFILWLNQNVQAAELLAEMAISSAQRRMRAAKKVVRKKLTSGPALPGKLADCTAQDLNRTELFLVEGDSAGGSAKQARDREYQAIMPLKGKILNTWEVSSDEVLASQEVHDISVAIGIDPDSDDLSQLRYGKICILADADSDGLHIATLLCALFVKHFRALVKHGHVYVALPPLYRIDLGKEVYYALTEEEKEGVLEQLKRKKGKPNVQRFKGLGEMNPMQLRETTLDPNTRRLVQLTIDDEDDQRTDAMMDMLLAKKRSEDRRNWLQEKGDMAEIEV

What is called MIC is the lowest concentration that inhibits growth of the organism. What is called IC50 is the concentration needed to halve the response being measured. Regarding `Cc1[nH]c(C(=O)Nc2ccc(-c3n[nH]c(=O)o3)cc2N2CCOC(C)C2)c(Cl)c1Cl` (stereo not drawn) [Example 43, 3,4-Dichloro-5-methyl-N-(2-(2-methylmorpholino)-4-(5-oxo-4,5-dihydro-1,3,4-oxadiazol-2-yl)phenyl)-1H-pyrrole-2-carboxamide], the remaining activity at 1 µM in [1] was found to be 103%. The remaining activity at 10 µM in experiment [1] turned out to be 102%. Moreover, the minimal inhibitory concentration (MIC) in experiment [2] was no less than 64 µg/mL; in [3], no less than 64 µg/mL; in experiment [4], no less than 64 µg/mL; in experiment [5], no less than 64 µg/mL; in experiment [6], no less than 64 µg/mL; in experiment [7] it was 1 µg/mL (≈ 2.21 µM). For the same compound, the MIC in [8] and in [9] was no less than 64 µg/mL each time. Besides, the IC50 in experiment [10] turned out to be 53.5 nM.

Take `Cc1[nH]c(C(=O)Nc2ccc(-c3n[nH]c(=O)o3)cc2OCc2cccs2)c(Cl)c1Cl` [Example 33, 3,4-Dichloro-5-methyl-N-(4-(5-oxo-4,5-dihydro-1,3,4-oxadiazol-2-yl)-2-(thiophen-2-ylmethoxy)phenyl)-1H-pyrrole-2-carboxamide]: the IC50 in [10] was determined as 3740 nM.

On to `Cc1[nH]c(C(=O)Nc2ccc(C(=O)NS(C)(=O)=O)cc2N2CCOCC2)c(Cl)c1Cl` [Example 45, 3,4-Dichloro-5-methyl-N-(4-((methylsulfonyl)carbamoyl)-2-morpholinophenyl)-1H-pyrrole-2-carboxamide], for which the IC50 in [10] was determined as 243 nM.

`Cc1[nH]c(C(=O)Nc2ccc(-c3n[nH]c(=O)o3)cc2N2CCOCC2)c(Cl)c1Cl` [Example 42, 3,4-Dichloro-5-methyl-N-(2-morpholino-4-(5-oxo-4,5-dihydro-1,3,4-oxadiazol-2-yl)phenyl)-1H-pyrrole-2-carboxamide]: the remaining activity at 1 µM in experiment [1] came to 66%. The remaining activity at 10 µM in [1] was determined as 54%. In addition, the MIC is no less than 64 µg/mL in experiment [2]; no less than 64 µg/mL in experiment [3]; no less than 64 µg/mL in [4]; no less than 64 µg/mL in experiment [5]; 0.25 µg/mL (≈ 0.57 µM) in experiment [6]; 0.125 µg/mL (≈ 0.285 µM) in [7]. Further, the figures for the MIC in [8] and in experiment [9] were no less than 64 µg/mL and 0.25 µg/mL (≈ 0.57 µM), respectively. Moreover, the half-inhibitory concentration (IC50) in experiment [10] stood at 82.2 nM.

`Cc1[nH]c(C(=O)Nc2ccc(-c3n[nH]c(=O)o3)cc2N2CC(C)OC(C)C2)c(Cl)c1Cl` (stereo not drawn) [Example 44, 3,4-dichloro-N-(2-(2,6-dimethylmorpholino)-4-(5-oxo-4,5-dihydro-1,3,4-oxadiazol-2-yl)phenyl)-5-methyl-1H-pyrrole-2-carboxamide]: in [1], the remaining activity at 1 µM was 105% and the remaining activity at 10 µM is 105%. The IC50 in [10] was determined as 109 nM.

As to `Cc1[nH]c(C(=O)Nc2ccc(-c3n[nH]c(=O)o3)cc2OCc2ccncc2)c(Cl)c1Cl` [Example 30, 3,4-Dichloro-5-methyl-N-(4-(5-oxo-4,5-dihydro-1,3,4-oxadiazol-2-yl)-2-(pyridin-4-ylmethoxy)phenyl)-1H-pyrrole-2-carboxamide], in experiment [10], the IC50 was 42.2 nM.

As for `Cc1[nH]c(C(=O)Nc2ccc(-c3n[nH]c(=O)o3)cc2N2CCNCC2)c(Cl)c1Cl.Cl` [Example 41, 4-(2-(3,4-Dichloro-5-methyl-1H-pyrrole-2-carboxamido)-5-(5-oxo-4,5-dihydro-1,3,4-oxadiazol-2-yl)phenyl)piperazin-1-ium chloride], the remaining activity at 1 µM in experiment [1] was determined as 71%. Also, the remaining activity at 10 µM in [1] was determined as 48%. In addition, the minimal inhibitory concentration (MIC) in experiment [2] was no less than 64 µg/mL; in experiment [3] it was no less than 64 µg/mL; in experiment [4] it was no less than 64 µg/mL; in experiment [5], no less than 64 µg/mL; in experiment [6] it was 4 µg/mL; in experiment [7], 0.5 µg/mL. Moreover, the MIC in experiment [8] was found to be 0.25 µg/mL; in experiment [9] it was 2 µg/mL. Besides, the IC50 in experiment [10] is 17.9 nM.

Values taken from patent publication US20250002455A1, “NEW N-PHENYLPYRROLAMIDE INHIBITORS OF DNA GYRASE AND TOPOISOMERASE IV WITH ANTIBACTERIAL ACTIVITY” (priority 2020, published 2025).
